“Also recorded” adds a separate entry of the source. *1 amine or outer side, *2 acyl side, *3 side chain or, on linkers, in order; H or OH if unused. Where a SMILES comes first, the peptide text is derived from it. Bridges are numbered along the chain shown (N, C = ends). Roman numbers before positions name the chains, in order. [ ]: non-standard residue; d: D form. Actinocin(9to1) = Cc1c2oc3c(C)ccc(C(=O)[*:1])c3nc-2c(C(=O)[*:2])c(N)c1=O; NMeV = CN[C@H](C(=O)O)C(C)C; Sar = CNCC(=O)O
How the values were obtained:
HMLEshEcad cells [1] = experiment: Dose-response viability of HMLEshCntrl vs HMLEshEcad cells (validation of hits, 384-well, Cell-Titer-Glo); format: cell-based, human; conditions: FIG. 4A; for selective toxicity towards HMLEshEcad cells relative to HMLEshCntrl cells: dose response on retesting; for IC50 fold lower for HMLEshEcad cells vs HMLEshCntrl cells: 3 day treatment, 8 concentrations
Description: (§1) FIG. 4A depicts dose response curves of HMLEshCntrl (A, light gray curve) and HMLEshEcad (A, dark gray curve) cells treated with the 8 compounds identified during the initial screen. 1000 cells of each line were seeded onto 384 well plates and treated with 8 different concentrations of compounds within a 2.5 log range. The cell viability after 3 day treatment was measured by Cell-Titer-Glo. […] FIG. 4B depicts dose response curves of HMLEshCntrl (curve with square data points) and HMLE-Twist (curve with triangular data points) cells treated with the same compounds as in (A). Note that selectivity of Salinomycin, Abamectin, Etoposide and Nigericin (Top, Left-to-Right) is retained even though a different method of EMT induction is used. […] 1 Day after seeding DMSO, Salinomycin (1.25 or 5 μM) or Abamectin (0.25 or 1.25 μM) was added at the indicated concentration. As the GFP vector contains a Blasticidin resistance gene, we used Blasticidin treatment as a positive control for the expansion of GFP-expressing control HMLE cells. After 3 day incubation the mix population of cells were analyzed by flow cytometry and the percentage of GFP-positive cells were determined. […] FIG. 4D depicts dose response curves of transformed HMLERshCntrl (light gray line) and HMLERshEcad (dark gray lines) cells treated with Salinomycin and Abamectin. Dotted line denotes the 50% fraction surviving.
We pursued 8 of the 32 compounds for further study and evaluated their effects across a range of doses.
For each of these compounds, we evaluated the effect on cell viability across a series of doses for sibling cell lines either induced into or not induced into EMT.
Information about the general automated HTS protocol is available online at broad.harvard.edu/chembio/index.html. The assay was initiated by plating 40 μL of medium containing 1000 cells/well into white 384-well opaque-bottom plates (Nunc, Rochester, N.Y.) using an automated plate filler (Bio-Tek μFiller; Winsooki, Vt.) and allowing the cells to adhere for 24 hours. 100 nL of compound stock solutions in dmso was transferred from stock plates into the 384-well assay plates using an automated pin-based compound transfer robot (CyBio CyBi-Well vario; Woburn, Mass.). For most compounds the final concentration in each well was calculated to be 10 uM.
The screen was performed in duplicate. For negative controls, entire dmso-treated control plates were employed, in addition to dmso-only control wells that were incorporated into each compound assay plate. The cells were assayed for luciferase activity with the addition 20 ul of CellTiter-Glo Luminescent Cell Viability Assay solution (Promega). The luminescent signal from each plate was detected using an automated plate reader (Perkin-Elmer Envision 1; Wellesley, Mass.).
(§2) Individual compounds were purchased from Sigma and dissolved in DMSO with the exception of nigericin which was dissolved in 100% ethanol. Activity of the compounds were quantified by generating dose-response curves for HMLE-shCntrl, HMLE-shEcad and HMLE-Twist under the same cell density and culture conditions described for the initial screen, using the 384-well plate based system.

HMLEshEcad cells [2] = experiment: Resistance to cytotoxic agents, immortalized HMLEshCntrl vs HMLEshEcad (MTS viability); format: cell-based, human; conditions: three concentrations, FIG. 2B
Description: (§3) FIGS. 2A-2D depict that passage through the EMT leads to resistance to conventional chemotherapy drugs. FIG. 2A depicts dose response curves of transformed HMLERshCntrl (light gray line) and HMLERshEcad (dark gray line) cells treated with Paclitaxel and Doxorubicin. Dotted line denotes the 50% fraction surviving. […] FIG. 2B depicts the response of immortalized cells to chemotherapy drugs. HMLEshCntrl and HMLEshEcad cells were treated with the indicated drugs at three concentrations for 3 days and assayed for viability using the MTS assay. While Doxorubucin, Actinomycin D, Paclitaxel and Campthotecin are chemotherapeutic drugs, Staurosporine is a general kinase inhibitor that potently induce apoptosis. FIGS. 2C and 2D depict paclitaxel treatment leads to selective expansion of a minority cell population that has undergone an EMT. Control HMLE cells and GFP expressing HMLEshEcad cells were mixed at a ratio of 20:1 and seeded onto 6-well plates in triplicate. DMSO or Paclitaxel at 2.5 nm or 10 nm concentration was added onto the mixed cell populations 1 day after seeding followed by a 3 day incubation. The number of GFP-positive cells at the end of treatment were analyzed by flow cytometry. […] Note the increase in GFP positivity from 5% to 14% upon […] Paclitaxel treatment.
However, we postulated that the differential drug sensitivity observed was, rather, a consequence of the respective differentiation states of the immortalized cells from which the cancer cell lines were derived. To directly examine this hypothesis, we treated HMLEsiGFP and HMLEsiEcad cells for a period of […] with a series of chemical compounds at 3 different concentrations each. Included in these compounds were the established chemotherapy drugs Doxorubicin, Paclitaxel, Actinomycin D, Camptothecin as well as a broad kinase inhibitor, Staurosporine.
(§4) Doxorubicin, paclitaxel, actinomycin D, campthotecin and staurosporine were purchased from Sigma and dissolved in dimethyl sulfoxide (dmso). 5000 cells in 100 ul of medium were plated per well in 96-well plates. 24 hrs after seeding, compounds at the indicated concentration were added to wells (5 wells per each concentration). Dmso treatment was used as negative control. Cell viability was measured after 72 hrs using the CellTiter96 AQueous Assay (Promega) according to manufacturer's instructions. Dose response curves were generated with GraphPad Prism software (GraphPad Software, Inc.).

HMLE-Twist cells [3] = experiment: Co-culture of GFP-expressing HMLE cells and unlabelled HMLE-Twist cells, FACS for GFP positivity; format: cell-based, human; conditions: FIG. 4C; for GFP-positive fraction relative to DMSO-treated controls: GFP-labeled HMLE + unlabeled HMLE-Twist
Description: as §1
To examine the effects of salinomycin and abamectin treatment on heterogeneous populations of epithelial cells that have and epithelial cells that have not undergone EMT, we co-mixed GFP-labeled HMLE cells with unlabeled HMLE-Twist cells, treating the resulting co-cultures with compounds. As a positive control for this experiment we treated co-cultures with blasticidin, which selects for the differentiated HMLE-GFP cells, which harbor a blasticidin-resistance gene.
For the mix experiments, unlabelled and GFP-labeled cells were mixed at the indicated ratios and seeded onto 6-well plates. Triplicate wells were then treated with dmso or the compounds (paclitaxel, salinomycin, abamectin and blasticidin) for 48 hrs. The cells were washed with PBS, trypsinized and analyzed by FACS for GFP positivity.

HMLERshEcad cells [4] = experiment: Resistance to cytotoxic agents, transformed HMLERshCntrl vs HMLERshEcad dose response; format: cell-based, human; conditions: FIG. 2A
Description: as §3
Since the HMLERsiEcad cells have a 100-fold increase in the frequency of cells capable of seeding tumors, we examined their response to two commonly used chemotherapy drugs, relative to HMLERsiGFP controls. We treated cultured HMLERsiGFP and HMLERsiEcad cells for a period of 3 days with either doxorubicin or paclitaxel, at various concentrations.
as §4

HMLE-Twist cells [5] = experiment: Dose-response viability of HMLEshCntrl vs HMLE-Twist cells; format: cell-based, human; conditions: EMT induced by Twist, FIG. 4B
Description: as §1, §2

HMLERshEcad cells [6] = experiment: Dose response of transformed HMLERshCntrl vs HMLERshEcad cells to screen hits; format: cell-based, human; conditions: range of concentrations, FIG. 4D
Description: as §1

SUM159 cells = experiment: FACS of the CD44hi/CD24lo fraction in treated SUM159 cells; format: cell-based; conditions: FIGS. 5C and 5D
Source text: FIG. 5A depicts flow cytometry analysis of Sum159, MDA-MB-231 and T47D cell lines with respect to cell surface expression of CD44 and CD24. Note that while the majority of cells in Sum159 and MDA-MB-231 line contain large amounts of CSCs, T47D cells have very few such cells. FIG. 5B depicts dose response curves of Sum159, MDA-MB-231 and T47D cell treated with Salinomycin.
To further characterize the effects of compound treatment on cancer cells, we conducted FACS analyses on SUM159 cells treated with salinomycin, abamectin, taxol, or DMSO.
The anti-CD44 (clone G44-26) antibody conjugated to APC and the anti-CD24 antibody (clone ML5) conjugated to PE used for FACS analysis were obtained from BD Bioscience and used according to the manufacturer's instructions. Propidium Iodide (5 ug/ml) was included in the staining protocol to distinguish live cells.

For `c1ccc2nc3ccccc3cc2c1` [Acridine], which “selective toxicity towards HMLEshEcad cells relative to HMLEshCntrl cells” value (HMLEshEcad cells [1]) is on record?
The value was “do not display such a behaviour”.

Which “selective toxicity towards HMLEshEcad cells relative to HMLEshCntrl cells” value (HMLEshEcad cells [1]) does the source give for `Clc1ccccc1C(c1ccccc1)(c1ccccc1)n1ccnc1` [Clotrimazole] here?
Its value is “do not display such a behaviour”.

With `Oc1cccc(O)c1` [Resorcinol] as the compound, how does the “selective toxicity towards HMLEshEcad cells relative to HMLEshCntrl cells” value (HMLEshEcad cells [1]) read?
Its value is “do not display such a behaviour”.

What does the source list for `Cc1c2oc3c(C)ccc(C(=O)N[C@@H]4C(=O)N[C@H](C(C)C)C(=O)N5CCC[C@H]5C(=O)N(C)CC(=O)N(C)[C@@H](C(C)C)C(=O)O[C@@H]4C)c3nc-2c(C(=O)N[C@@H]2C(=O)N[C@H](C(C)C)C(=O)N3CCC[C@H]3C(=O)N(C)CC(=O)N(C)[C@@H](C(C)C)C(=O)O[C@@H]2C)c(N)c1=O` [actinomycin D] (I: T[dV]P[Sar][NMeV] / II: T[dV]P[Sar][NMeV]; ester I:1-I:C, II:1-II:C; linker I:N-II:N via Actinocin(9to1))?
resistance of HMLEshEcad cells relative to HMLEshCntrl control cells (HMLEshEcad cells [2]): resistant; resistance of HMLEshEcad cells relative to HMLEshCntrl control cells (HMLEshEcad cells [2]; listed as Actinomycin D): increased resistance

For `CN(CC[C@H](N)CC(=O)N[C@H]1C=C[C@H](n2ccc(N)nc2=O)O[C@@H]1C(=O)O)C(=N)N` [blasticidin], which “GFP-positive fraction relative to DMSO-treated controls” value (HMLE-Twist cells [3]) is on record?
Its value is “increase”.

How did the “resistance of HMLEshEcad cells relative to HMLEshCntrl control cells” value (HMLEshEcad cells [2]) turn out when `CC[C@@]1(O)C(=O)OCc2c1cc1n(c2=O)Cc2cc3ccccc3nc2-1` [camptothecin] was run?
The value was “resistant”.

And the “resistance of HMLEshEcad cells relative to HMLEshCntrl control cells” value (HMLEshEcad cells [2]; listed as Camptothecin)?
The value was “increased resistance”.

For `COc1cccc2c1C(=O)c1c(O)c3c(c(O)c1C2=O)C[C@@](O)(C(=O)CO)C[C@@H]3O[C@H]1C[C@H](N)[C@H](O)[C@H](C)O1` [doxorubicin], which “IC50 for HMLERsiEcad cells relative to IC50 for HMLERsiGFP cells” value (HMLERshEcad cells [4]; 3 days, various concentrations) is on record?
Its value is “significantly higher”.

What about the “resistance of HMLERshEcad cells compared to HMLERshCntrl cells” value (HMLERshEcad cells [4]) of the same compound?
Its value is “significantly more resistant”.

What about the “resistance of HMLERshEcad cells compared to HMLERshCntrl cells” value (HMLERshEcad cells [4]; listed as Doxorubicin) of the same compound?
The value was “more resistant”.

And the “resistance of HMLEshEcad cells relative to HMLEshCntrl control cells” value (HMLEshEcad cells [2])?
The value was “increased resistance”.

With `CO[C@@H]1C[C@@H](C[C@H]2CC[C@H](C)[C@H]([C@@H](C)C(=O)O)O2)O[C@]2(O[C@](C)([C@H]3CC[C@@](C)([C@@H]4O[C@@H]([C@H]5O[C@@](O)(CO)[C@H](C)C[C@@H]5C)C[C@@H]4C)O3)C[C@H]2C)[C@@H]1C` [nigericin] as the compound, how does the “IC50 fold lower for HMLEshEcad cells vs HMLEshCntrl cells” value (HMLEshEcad cells [1]) read?
The value was ~7 fold.

What about the “selective toxicity towards HMLEshEcad cells relative to HMLEshCntrl cells” value (HMLEshEcad cells [1]) of the same compound?
Its value is “weaker selectivity; also recorded: modest selective toxicity”.

What about the “selective toxicity towards HMLEshEcad cells relative to HMLEshCntrl cells” value (HMLEshEcad cells [1]; listed as Nigericin) of the same compound?
The value was “selective toxicity”.

And the “selectivity for HMLE-Twist cells vs HMLEshCntrl; dose-response curves compared with HMLEshEcad” value (HMLE-Twist cells [5])?
The value was “is retained”.

How did the “resistance of HMLEshEcad cells relative to HMLEshCntrl control cells” value (HMLEshEcad cells [2]) turn out when `CN[C@@H]1C[C@H]2O[C@@](C)([C@@H]1OC)n1c3ccccc3c3c4c(c5c6ccccc6n2c5c31)C(=O)NC4` [staurosporine] was run?
The value was “resistant”.

And the “resistance of HMLEshEcad cells relative to HMLEshCntrl control cells” value (HMLEshEcad cells [2]; listed as Staurosporine)?
Its value is “increased resistance”.

Which results are given for abamectin?
IC50 fold lower for HMLEshEcad cells vs HMLEshCntrl cells (HMLEshEcad cells [1]): ~10 fold; selective toxicity towards HMLEshEcad cells relative to HMLEshCntrl cells (HMLEshEcad cells [1]): moderate to strong selectivity; also recorded: strong specificity; selective toxicity towards HMLEshEcad cells relative to HMLEshCntrl cells (HMLEshEcad cells [1]; listed as Abamectin): selective toxicity; selectivity for HMLE-Twist cells vs HMLEshCntrl; dose-response curves compared with HMLEshEcad (HMLE-Twist cells [5]): is retained; GFP-positive fraction relative to DMSO-treated controls (HMLE-Twist cells [3]): increase; proportion of HMLETwist cells in co-culture with control cells (HMLE-Twist cells [3]; Salinomycin 1.25 or 5 μM, Abamectin 0.25 or 1.25 μM): dose-dependent decrease; also recorded: selection against the GFP-negative HMLE-twist cells; selective toxicity for HMLERshEcad (MT tumorigenic) cells (HMLERshEcad cells [6]): modest but selective toxicity; percent of cells in the CD44hi/CD2410 fraction relative to DMSO controls (SUM159 cells): did not significantly alter
